Experimental data from patent US9850276B2, “Bidentate-binding modulators of LRRK2 and JNK kinases” (THE SCRIPPS RESEARCH INSTITUTE, priority 2013, dated 2017).

Assays:
[1] = system: cardiomyocyte apoptosis and infarct size; conditions: rats; cited from earlier work
H9c2 cells [2] = assay: Cell viability under oxidative stress (Cell-Titer Glo luminescent assay); type: cell-based; conditions: 25 μM H2O2 + 500 nM SR-3306
Protocol: (§1) A similar effect was seen when mitochondrial membrane potential was measured by Rhodamine 123 detection. […] Similarly, both ROS generation and membrane depolarization effects elicited by oxidative stress in H92c cells were blocked by inhibition of JNK with the small molecule, SR-3306 (commercially available from Calbiochem). Finally, the effect of SR-3306 or Tat-Sab on cell viability in response to oxidative stress was measured by a Cell-Titer Glo luminescent assay. H9c2 cells treated with 25 μM H2O2 were ˜40% viable, whereas addition of 500 nM SR-3306 to cells treated with 25 μM H2O2 increased viability to ˜80%, and addition of 3 μM Tat-Sab peptide to cells treated with 25 μM H2O2 increased viability to ˜65% compared to 95% viable in untreated cells.

[3] = system: infarct size in rat hearts; assay: I/R MI rat model, 30 minutes ischemia and 24 hours reperfusion; type: in vivo; conditions: 5 mg/kg SR-3306; anesthetized rats; p<0.05
Protocol: The in vivo efficacy of SR-3306 in anesthetized rats after 30 minutes ischemia and 24 hours reperfusion was evaluated.

H9c2 cells [4] = assay: Mitochondrial membrane potential under H2O2 (Rhodamine 123 detection); type: cell-based; conditions: 25 μM H2O2
Protocol: (§2) To test whether JNK mitochondrial localization had effects on mitochondrial function we measured the impact of Tat-Sab, and a small molecule JNK inhibitor, SR-3306 (commercially available from Calbiochem), on ROS generation and mitochondrial membrane depolarization in H9c2 cells treated with H2O2. The ROS fluorescence/cell in the absence of oxidative stress (PBS), was compared to treatment with either 25 μM H2O2, or 25 μM H2O2+500 nM SR-3306, or 25 μM H2O2+3 μM Tat-scramble peptide, or 25 μM H2O2+3 μM Tat-Sab peptide.
as §1

H9c2 cells [5] = assay: ROS generation under H2O2 oxidative stress; type: cell-based; conditions: 25 μM H2O2 + 500 nM SR-3306
Protocol: as §2

SMILES	cardiomyocyte apoptosis and infarct size after I/R [1]	cell viability (H9c2 cells [2]) [%]	infarct size (IS) [3]	mitochondrial membrane potential perturbation / depolarization (H9c2 cells [4])	reduction of ROS generation compared to 25 μM H2O2 treatment (H9c2 cells [5]) [fold]
N#CC(c1ccnc(NCCc2cccnc2)n1)c1nc2ccccc2s1 (centres unmarked) [AS601245]	decreased cardiomyocyte apoptosis and infarct size				
Cc1ccc(-c2ncn(-c3ccc(Nc4nccc(-c5cccc(N6CCOCC6)c5)n4)cc3)n2)cn1 [SR-3306]		~80	23±3.5 % of AAR	blocked	~2
